In US20220251109A1, “OXAAZAQUINAZOLINE-7(8H)-KETONE COMPOUND, PREPARATION METHOD THEREFOR AND PHARMACEUTICAL APPLICATION THEREOF” (GENFLEET THERAPEUTICS (SHANGHAI) INC., priority 2019, published 2022):
pIC50: −log10 of the molar value. Like-named read-outs stand apart in the source and are kept apart here.

Assays:
Assay type in all cases: cell-based, human
[1] = system: NCI-H358 cells (Kras G12C mutation); experiment: Cell proliferation inhibition experiment, 3D model, CellTiter-Glo (NCI-H358); conditions: NCI-H358, 3D sphere plate, 5 days, 2% FBS
Summary of the method: (§1)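 Luminescent ATP read-out (CellTiter-Glo) after 5-day compound treatment gave % inhibition relative to DMSO control and medium blank, fitted four-parameter for IC50. Spheroids were formed overnight in 2% FBS medium from 800 H358 or 400 A549 cells per well; dilutions were 3.16-fold, final DMSO 0.1%.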

[2] = system: MIA PaCa-2 cells (Kras G12C mutation); experiment: Cell proliferation inhibition experiment, 3D model, CellTiter-Glo (MIA PaCa-2); conditions: MIA PaCa-2, 3D sphere plate, 5 days, read-out: MIA-PaCa2 IC50
Summary of the method: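 3D spheroid model: 200 MIA PaCa-2 cells per well cultured overnight, then treated with a 3.16-fold compound dilution series (0.1% DMSO) for 5 days. Viability read by CellTiter-Glo luminescence. Inhibition rate normalised to DMSO and medium-blank controls; IC50 from four-parameter fit.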

[3] = system: A549 cells (Kras G12S mutation); experiment: Cell proliferation inhibition experiment, 3D model, CellTiter-Glo (A549); conditions: A549, 3D sphere plate, 5 days, 2% FBS
Summary of the method: as §1

[4] = system: p-ERK in MIA PaCa2 cells (Kras G12C mutation); experiment: Cell p-ERK detection experiment (HTRF) in MIA PaCa2 cells; conditions: compound 2 hours
Summary of the method: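 MIA PaCa2 cells (KRAS G12C) seeded overnight, then treated 2 h with 3.16-fold compound dilutions (0.1% DMSO). Lysates probed with p-ERK HTRF antibodies for 4 h; inhibition relative to DMSO and blank wells, IC50 from four-parameter fit.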

[5] = Homo sapiens, MIA PaCa-2, 120 h

pIC50 ([1]; Homo sapiens, NCI-H358, 120 h)	pIC50 [2, 5]	pIC50 ([3]; Homo sapiens, A549, 120 h)	pIC50 ([4]; Homo sapiens, MIA PaCa-2, 2 h)	pIC50 [1]	pIC50 [3]	pIC50 [4]	pIC50 [2]	SMILES
8.40	8.22	< 5.00	7.35	–	–	–	–	C=CC(=O)N1CCN2c3nc(=O)n(-c4c(C)ccnc4C(C)C)c4nc(-c5ccccc5Cl)c(F)c(c34)OC[C@H]2C1 [Compound Z79]
8.05	7.77	< 4.52	7.31	–	–	–	–	C=CC(=O)N1CCN2c3nc(=O)n(-c4c(C)ncnc4C4CC4)c4nc(-c5c(O)cccc5F)c(F)c(c34)OC[C@H]2C1 [Compound Z108]
8.15	7.72	< 5.00	7.33	–	–	–	–	C=CC(=O)N1CCN2c3nc(=O)n(-c4c(C)ccnc4C(C)C)c4nc(-c5cc(F)ccc5F)c(Cl)c(c34)OC[C@@H]2C1 [Compound Z60]
7.77	7.07	4.56	6.71	–	–	–	–	C=CC(=O)N1CCN2c3nc(=O)n(-c4c(C#N)cnn4C(C)(C)C)c4nc(-c5c(O)cccc5F)c(Cl)c(c34)OC[C@H]2C1 [Compound Z120]
–	7.82	–	–	8.52	< 4.52	7.74	–	C=CC(=O)N1CCN2c3nc(=O)n(-c4c(C)ccnc4C(C)C)c4nc(-c5cccc(Cl)c5F)c(Cl)c(c34)OC[C@H]2C1 (single isomer, unassigned) [Compound Z91-2]
–	8.52	< 5.00	7.89	9.00	–	–	–	C=CC(=O)N1CCN2c3nc(=O)n(-c4c(C)ccnc4C(C)C)c4nc(-c5c(O)cccc5F)c(Cl)c(c34)OC[C@H]2C1 (single isomer, unassigned) [Compound Z23-1]
–	–	–	–	8.52	< 5.00	7.60	8.10	C=CC(=O)N1CCN2c3nc(=O)n(-c4c(C)ccnc4C(C)C)c4nc(-c5c(O)cccc5F)c(Cl)c(c34)OC[C@@H]2C1 (single isomer, unassigned) [Compound Z24-2]
–	8.70	–	–	9.00	< 5.00	8.10	–	C=CC(=O)N1CCN2c3nc(=O)n(-c4c(C)ccnc4C(C)C)c4nc(-c5ccc(F)cc5F)c(Cl)c(c34)OC[C@H]2C1 (single isomer, unassigned) [Compound Z76-2]
–	–	< 4.52	–	8.52	–	7.62	8.40	C=CC(=O)N1CCN2c3nc(=O)n(-c4c(C)ccnc4C4CC4)c4nc(-c5c(O)cccc5F)c(F)c(c34)OC[C@H]2C1 (single isomer, unassigned) [Compound Z112-1]
8.30	7.68	4.73	7.51	–	–	–	–	C=CC(=O)N1CCN2c3nc(=O)n(-c4c(C)nc(OC)nc4C(C)C)c4nc(-c5c(O)cccc5F)c(F)c(c34)OC[C@H]2C1 [Compound Z115]
8.52	8.22	< 5.00	7.68	–	–	–	–	C=CC(=O)N1CCN2c3nc(=O)n(-c4c(C)ccnc4C(C)C)c4nc(-c5c(F)cccc5Cl)c(Cl)c(c34)OC[C@@H]2C1 [Compound Z67]
–	–	–	–	9.00	< 5.00	7.82	8.52	C=CC(=O)N1CCN2c3nc(=O)n(-c4c(C)ccnc4C(C)C)c4nc(-c5cccc(F)c5F)c(Cl)c(c34)OC[C@@H]2C1 (single isomer, unassigned) [Compound Z47-1]
8.52	8.30	< 5.00	7.80	–	–	–	–	C=CC(=O)N1CCN2c3nc(=O)n(-c4c(C)cc(=O)n(C)c4C(C)C)c4nc(-c5ccccc5F)c(Cl)c(c34)OC[C@H]2C1 [Compound Z121]
8.52	8.22	4.73	7.27	–	–	–	–	C=CC(=O)N1CCN2c3nc(=O)n(-c4c(C)ccnc4C(C)C)c4nc(-c5c(O)cccc5F)c(F)c(c34)OC[C@@H]2C1 [Compound Z85]
7.89	7.66	< 5.00	6.98	–	–	–	–	C=CC(=O)N1CCN2c3nc(=O)n(-c4c(C)ccnc4C(C)C)c4nc(-c5ccccc5F)c(F)c(c34)OC[C@@H]2C1 [Compound Z84]
8.70	8.70	< 5.00	8.15	–	–	–	–	C=CC(=O)N1CCN2c3nc(=O)n(-c4c(C5CC5)ncnc4C4CC4)c4nc(-c5c(O)cccc5F)c(Cl)c(c34)OC[C@H]2C1 [Compound Z94]
–	–	–	–	8.70	< 5.00	7.70	8.30	C=CC(=O)N1CCN2c3nc(=O)n(-c4c(C)ccnc4C(C)C)c4nc(-c5c(O)cccc5F)c(F)c(c34)OC[C@H]2C1 (single isomer, unassigned) [Compound Z73-2]
8.40	7.96	4.83	7.37	–	–	–	–	C=CC(=O)N1CCN2c3nc(=O)n(-c4c(OC)ncnc4C(C)C)c4nc(-c5ccccc5F)c(Cl)c(c34)OC[C@H]2C1 [Compound Z110]
8.15	7.96	< 4.52	7.00	–	–	–	–	C=CC(=O)N1CCN2c3nc(=O)n(-c4c(CO)ccnc4C(C)C)c4nc(-c5ccccc5F)c(Cl)c(c34)OC[C@H]2C1 [Compound Z122]
–	–	< 5.00	6.89	7.92	–	–	7.66	C=CC(=O)N1CCN2c3nc(=O)n(-c4c(C)ccnc4C(C)C)c4nc(-c5ccc(F)cc5F)c(Cl)c(c34)OC[C@@H]2C1 [Compound Z49]
9.00	9.00	4.57	8.15	–	–	–	–	C=CC(=O)N1CCN2c3nc(=O)n(-c4c(C(C)C)ncnc4C(C)C)c4nc(-c5c(O)cccc5F)c(Cl)c(c34)OC[C@H]2C1 [Compound Z97]
–	8.10	–	7.70	8.52	5.26	–	–	C=CC(=O)N1CCN2c3nc(=O)n(-c4c(C)ccnc4C(C)C)c4nc(-c5ccccc5F)c(Cl)c(c34)OC[C@@H]2C1 (single isomer, unassigned) [Compound Z46-2]
8.52	8.70	< 5.00	7.60	–	–	–	–	C=CC(=O)N1CCN2c3nc(=O)n(-c4c(C(C)C)ccnc4C)c4nc(-c5c(O)cccc5F)c(F)c(c34)OC[C@H]2C1 [Compound Z92]
–	7.72	–	–	8.15	< 4.52	7.46	–	C=CC(=O)N1CCN2c3nc(=O)n(-c4nccnc4C(C)C)c4nc(-c5c(O)cccc5F)c(F)c(c34)OC[C@H]2C1 [Compound Z107-2]
–	8.70	–	–	9.00	< 5.00	8.10	–	C=CC(=O)N1CCN2c3nc(=O)n(-c4c(C)ccnc4C(C)C)c4nc(-c5cccc(F)c5F)c(Cl)c(c34)OC[C@H]2C1 (single isomer, unassigned) [Compound Z77-2]
–	7.92	5.07	7.74	8.30	–	–	–	C=CC(=O)N1CCN2c3nc(=O)n(-c4c(C#N)cnn4C(C)(C)C)c4nc(-c5ccccc5F)c(Cl)c(c34)OC[C@H]2C1 (single isomer, unassigned) [Compound Z109-1]
